Data taken from PMC6941756 (Biochemistry, 2019).

Biological target: HIV-1 protease KY variant (Human immunodeficiency virus 1, UniProt P12497, L577V/L578M/Q495K, form not given)

CC(C)CN(C[C@@H](O)[C@H](Cc1ccccc1)NC(=O)O[C@H]1CO[C@H]2OCC[C@H]21)S(=O)(=O)c1ccc(N)cc1 [DRV, darunavir]
times more tightly bound than expected under additivity of binding free energies (KY variant protease): about 3.5 times
increase in Ki compared with the NL4–3 WT protease (all of the KY variants vs NL4–3 WT): ≥ 500 fold
